Assays:
β2-adrenergic receptor [1] = assay: Determination of β-adrenergic receptor density by radioligand (ICYP) binding in lung membranes of treated asthmatic mice, Example 2; format: in vivo; details: for Apparent KD (of radioligand ICYP): KD of ICYP binding, not of the drug
Experimental: β2-adrenergic receptor numbers were measured in asthmatic mice as follows. […] Mice were sacrificed and lung membranes were isolated as follows. Frozen lung tissue was homogenized in an ice-cold buffer containing 0.32 M sucrose and 25 mM Tris (pH 7.4) using a polytron (Pro 200, Pro Scientific, Inc.). The homogenate was centrifuged at 1000×g for 10 min at 4° C. The resulting supernatant was centrifuged at 40,000×g for 20 min at 4° C. The pellet was suspended in an ice-cold 25 mM Tris-HCl buffer (pH 7.4) and centrifuged at 40,000×g for 20 min at 4° C. The final pellet was suspended in 200 μL of 25 mM Tris-HCl (pH 7.4); membrane protein concentration was determined by BCA protein assay kit. […] The incubation was done at 37° C. for 2 h and terminated by rapid vacuum filtration through glass fiber filters. The filters were washed three times with 250 μL of cold wash buffer (25 mM Tris-HCl, pH 7.4) and the radioactivity determined in a counter. […] Receptor densities are expressed as femtomoles of sites per milligram of protein. Bmax is determined by nonlinear regression of the saturation binding curves. […] Please note that the 15-minute and 28-day time points refer to duration of drug treatment.

[2] = system: patients who had a history of failing to quit smoking programs; assay: Success of smoking cessation versus placebo, Example 14; format: in vivo, human; details: patients who had failed quit smoking programs at least 5 times
β-arrestin pathway = assay: Blockade of the β-arrestin pathway, Example 16 / FIG. 16; format: cell-based
asthmatic mice [3] = assay: Decrease in airway resistance (Raw) by period of administration, Example 8 / Table 2; format: in vivo
Experimental: (§1) The periods of administration of the agents are 15 minutes, 2 days, and 28 days. […] This strongly supports the concept of combination therapy, such as with an inverse agonist and an agonist.

cAMP accumulation = assay: cAMP accumulation, Example 16 / FIG. 16; format: cell-based
asthmatic mice [4] = assay: β-adrenergic receptor drugs at low and high doses on airway resistance, Example 7; format: in vivo
Experimental: For these experiments, salbutamol was used for chronic administration at 0.5 mg/kg/day with a minipump and for acute administration at 0.15 mg/kg by i.v. bolus 15 minutes prior to challenge. […] Carvedilol was used at a high dose of 2400 ppm in chow or at a low dose of 720 ppm in chow. […] In these diagrams, Ctrl=control mice, non-asthmatic, non-drug treated; NTX=asthmatic mice, non-drug treated; AC=acute administration; 2d=chronic administration for 2 days; 28d=chronic administration for 28 days. The airway resistance (Raw) is plotted as cm H2O ml^−1 s.

β2-adrenergic receptor [5] = target: T1, β2-adrenergic receptor (Mus musculus, UniProt P18762); assay: Upregulation of β2-adrenergic receptor density by period of administration, Example 8 / Table 2; format: in vivo, mice; parameters: from tissue
Experimental: as §1

[6] = system: asthmatic mice (ovalbumin-sensitized and ovalbumin-challenged); details: same mouse asthma model; Callaerts-Vegh et al. 2004; cited from earlier work
[7] = system: subjects with mild asthma; assay: Salbutamol effectiveness after methacholine challenge in subjects with mild asthma on nadolol, Example 15; format: in vivo, human; details: salbutamol 2.5 mg by nebulization
Description: Salbutamol is a short-acting β2-adrenergic receptor agonist.

[8] = cited from earlier work
[9] = system: asthmatic mice (ovalbumin-sensitized and ovalbumin-challenged); assay: Airway responsiveness to methacholine (airway resistance Raw, forced oscillation) in murine model of asthma, Example 1; format: in vivo, Balb/cJ mice
Experimental: The results obtained in drug-treated animals were compared with those obtained in vehicle-treated counterparts (controls) in experiments performed in close temporal relationship. […] Mice were sensitized with subcutaneous injection of 25 μg of ovalbumin adsorbed to aluminum hydroxide on protocol days 2, 9, and 16. Subsequently, mice were given 50 μL of saline solution containing 25 μg of ovalbumin intranasally, on a daily basis, from protocol days 23 through 27. A group of ovalbumin-sensitized saline-challenged mice serves as controls for systemic sensitization and respiratory challenges with ovalbumin. Prior to intranasal administrations, mice were sedated with halothane vapor. For the study of Example 1, ovalbumin-sensitized and ovalbumin-challenged mice, and ovalbumin-sensitized and saline-challenged mice will be referred to as asthmatic mice and control mice, respectively. […] To examine the effects of duration of β-adrenergic ligand therapy on the phenotype of the murine model of asthma, the experimental drugs were administered either acutely or chronically to different groups of asthmatic mice. […] These concentrations were chosen based on those producing therapeutic effects in mice in previously published studies. The non-asthmatic mice were fed normal chow. Salbutamol was delivered for 28 days at a dose of 0.5 mg/kg/day using an osmotic minipump (Alzet®, #2004, Durect Corporation, Cupertino, CA). […] Airway resistance (Raw) was measured using the forced oscillation technique. The cellular composition of bronchoalveolar lavage fluid (BALF) was also determined. […] However, it was observed that the degree of airway responsiveness and the number of eosinophils recovered in BALF were lower in non-treated asthmatic mice studied in close temporal relationship with mice receiving acute β-adrenergic antagonist treatments that in those obtained in non-treated asthmatic mice studied concomitantly with mice on chronic β-adrenergic antagonist therapy. […] The complex input impedance of the respiratory system was computed and the value of the real part of respiratory system impedance at 19.75 Hz was taken to reflect the magnitude of airway resistance (Raw). To examine the degree of airway responsiveness of each animal, the values for Raw as a function of methacholine doses were plotted. The largest value for Raw achieved in response to methacholine stimulation was referred to as […]. For mice that achieved a plateau in the methacholine dose-Raw response curve, the ED50 was calculated by linear interpolation using the GraphPad Prism4 (GraphPad Software, Inc.). Results obtained for β-adrenergic drug-treated and non-treated mice were performed using the analysis of variance for multiple groups of a Student's t-test for comparing two groups. The Bonferroni test was used to examine the statistical differences between experimental groups. The effects of acute drug treatments on baseline respiratory system mechanics were assessed using a two-tailed paired t-test. A value of P<0.05 was considered significant.

β2-adrenergic receptor [10] = target: T1, β2-adrenergic receptor; assay: Immunohistochemistry of β2-adrenergic receptor levels in lung sections, Example 3; format: in vivo, mice; parameters: from tissue; host or cells: mouse lung sections; details: chronic nadolol versus untreated animals; epifluorescent microscopy
Experimental: The mice were sacrificed and the lungs excised. Then the lungs were fixed in 4% paraformaldehyde (45 min, 0° C.). After fixation, lungs were washed in PBS (60 min) and placed in increasing concentrations of sucrose (10% sucrose/5% glycine in PBS for 30 min; 20% sucrose/10% glycine in PBS for 30 min; 30% sucrose/15% glycine in PBS for 12 h at 4° C.). Lungs were embedded in OCT and 12-μm sections cut with a Tissue-Tek II cryostat. The sections were air-dried and fixed with 4% paraformaldehyde for 15 minutes. After 3 washes in PBS, the slides were blocked with 5% milk in PBS for 1 hour, and then incubated overnight with anti-β2-adrenergic receptor antibody (1:200, Santa Cruz Biotechnology) in blocking solution. Slides were washed in PBS and incubated with secondary antibody (1:200, Cy3 goat anti-rabbit antibody, 16 h at 4° C.). […] After washing with PBS, coverslips were mounted and viewed by epifluorescent microscopy.

[11] = system: ovalbumin-sensitized, allergen-challenged mice; assay: Aminophylline on acute airway effects of nadolol (methacholine-induced bronchoconstriction), Example 5; format: in vivo; details: nadolol 0.72 mg/kg i.p. 15 minutes prior to methacholine challenge
[12] = system: mucous metaplasia in sensitized/challenged mice; assay: Mucous metaplasia in sensitized/challenged mice (photomicrographs), Example 10; format: in vivo; details: sensitized/challenged mice after treatment

T1 sequence (P18762 whole entry): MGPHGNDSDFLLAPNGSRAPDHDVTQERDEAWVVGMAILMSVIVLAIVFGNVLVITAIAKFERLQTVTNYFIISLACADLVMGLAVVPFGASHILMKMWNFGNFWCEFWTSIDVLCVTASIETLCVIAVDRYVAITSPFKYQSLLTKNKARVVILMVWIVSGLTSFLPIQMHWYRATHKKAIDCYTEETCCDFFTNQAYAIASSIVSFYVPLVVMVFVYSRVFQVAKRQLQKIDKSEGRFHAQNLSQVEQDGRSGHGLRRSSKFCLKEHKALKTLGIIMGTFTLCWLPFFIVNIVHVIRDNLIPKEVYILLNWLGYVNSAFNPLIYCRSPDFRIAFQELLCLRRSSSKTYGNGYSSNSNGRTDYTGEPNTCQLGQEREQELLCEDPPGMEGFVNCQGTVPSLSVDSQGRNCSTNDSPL

- increase of the level of β2-adrenergic receptors over the non-treated mice (β2-adrenergic receptor [1]; chronic administration, versus untreated methacholine-challenged asthmatic mice): nearly eightfold increase
- Increased β2AR density (β2-adrenergic receptor [5]; 15 minutes administration): no
- Increased β2AR density (β2-adrenergic receptor [5]; 2 days administration): yes
- Increased β2AR density (β2-adrenergic receptor [5]; 28 days administration): yes
- labeling with anti-β2-adrenergic receptor antibodies in lungs (β2-adrenergic receptor [10]): considerably more intense
Structure (SMILES): CC(C)(C)NCC(O)COc1cccc2c1CC(O)C(O)C2 (stereo not shown) [Nadolol, nadolol]
- Apparent KD (of radioligand ICYP) (β2-adrenergic receptor [1]; lung membranes, drug treatment 15 Minutes): (695.1 ± 286.3) pM
- Bmax (β-adrenergic receptor density) (β2-adrenergic receptor [1]; lung membranes, drug treatment 15 Minutes, mean ± SEM, n=3-5): 181.9 ± 48.28 femtomoles of sites per milligram of protein
- Apparent KD (of radioligand ICYP) (β2-adrenergic receptor [1]; lung membranes, drug treatment 28 Days): (1591.6 ± 335.0) pM
- βmax (β-adrenergic receptor density) (β2-adrenergic receptor [1]; lung membranes, drug treatment 28 Days, mean ± SEM, n=3-5): 785.5 ± 154.8 femtomoles of sites per milligram of protein
- reduction in smoking [2]: 70%
- block of the β-arrestin pathway (β-arrestin pathway): acts to block the β-arrestin pathway
- Decreased Raw (asthmatic mice [3]; 15 minutes administration): no
- Decreased Raw (asthmatic mice [3]; 2 days administration): yes
- Decreased Raw (asthmatic mice [3]; 28 days administration): yes
- cAMP accumulation (cAMP accumulation): not associated with cAMP accumulation
- protection from airway hyperresponsiveness (asthmatic mice [4]; chronic administration in chow, high and low dose): providing protection from airway hyperresponsiveness with chronic administration
- airway resistance (Raw) at 1 ppm in chow (asthmatic mice [4]; nadolol 1 ppm in chow): identical to the untreated mice
- airway hyperresponsiveness, administered acutely [6]: worsens airway hyperresponsiveness
- airway hyperresponsiveness, administered chronically [6]: prevents airway hyperresponsiveness
- effect on effectiveness of salbutamol after methacholine challenge [7]: does not block the effectiveness of the administration of salbutamol
- lipid solubility [8]: low lipid solubility
- airway responsiveness to methacholine provocation (Raw), chronic treatment ([9]; drug delivered for 28 days (chow or osmotic minipump)): produced a decrease in airway responsiveness, which was more pronounced than that caused by carvedilol treatment
- airway responsiveness to methacholine provocation (Raw), acute treatment ([9]; single intravenous bolus 15 minutes before methacholine): enhanced the airway responsiveness of asthmatic mice
- baseline airway resistance [11]: the same baseline airway resistance as non-drug treated sensitized and allergen-challenged mice
- mucous metaplasia [12]: nearly complete elimination of mucous metaplasia

Reference: patent US20250017878A1 (Chronic Airway Therapeutics Limited, priority 2021, published 2025)
